Experimental data taken from a melting point compilation (Tetko et al.; mined from patent text by program, amines drawn as free bases though some values may be those of a salt).
Residues, ends and D or L forms follow the SMILES beside them. *: point of attachment. Cbz = O=C(OCc1ccccc1)*

melting point	SMILES
92.5 to 93.5 °C	CCOC(=O)c1ccc(-c2ccc3c(c2)OCO3)cc1
83 to 85 °C	O=C(C1=C(c2ccc(O)cc2)CCc2ccccc21)c1ccc(OCCN2CCCCC2)cc1
225 to 228 °C	Oc1cccc(-c2nc3cccc(CBr)c3o2)c1
164 to 165 °C	CCCc1nc2c(N)nc(C)c(C)c2n1CCCC(=O)N1CCOCC1
43 to 46 °C	CC(O)CCCCCCCCc1ccc(O)c(O)c1 (centres undefined)
180 to 183 °C	CCc1cc(Cl)c(S(C)(=O)=O)cc1C(=O)O
121 to 122 °C	CC(C)(C)[Si](C)(C)OC1CN(c2ccc(N3C[C@H](CN=[N+]=[N-])OC3=O)cc2F)C1
114 to 116 °C	CCOC(=O)c1nccc(C#N)c1N
200 to 202 °C	c1ccc(-c2cn3cccnc3n2)cc1
233 to 235 °C	CCOC(=O)Cc1c2c(nn1CC)c(=O)[nH]c1ccccc12
111 to 114 °C	CNc1cn(-c2cncnc2)nc1Cl
156 to 159 °C	COc1ccc(C2=NN(C3CCN(C(=O)c4c(Cl)cc(Cl)cc4Cl)CC3)C(=O)CC2)cc1OC
132 to 133 °C	O=C(O)CCCn1c(=O)c2ccccc2n(CCCCN2CCC(OC(c3ccccc3)c3ccccc3)CC2)c1=O
233 to 234 °C	CC(C)(C)[C@@H](NC(=O)c1cc(Cl)cc(Cl)c1)NC1C(=O)C(=O)C1Nc1cccnc1Cl (some centres undefined)
122 to 123 °C	C=CC(=O)NC[C@H](O)[C@@H](O)[C@H](O)[C@H](O)CO
149 to 150 °C	CC1(C)Cc2nc(C3CCCC3)c(C(F)c3ccc(C(F)(F)F)cc3)c(-c3ccc(F)c(F)c3)c2C(O)C1 (centres undefined)
90 to 92 °C	CC(CCC(=O)O)(Sc1cc(C(C)(C)C)c(O)c(C(C)(C)C)c1)Sc1cc(C(C)(C)C)c(O)c(C(C)(C)C)c1
157 to 159 °C	O=c1oc2ccccc2c(O)c1CCOc1ccccc1
147 to 148 °C	COc1cc(NC(=S)C2(C)CCc3c(C)c(O)c(C)c(C)c3O2)cc(OC)c1OC (centres undefined)
87 to 88 °C	OCc1cnoc1-c1ccc(Cl)c(F)c1
172 to 174 °C	CCCn1c(=O)c2[nH]c(C34CC5CC3CC(C4)C5=O)nc2n(CCC)c1=O
214 °C	O=C1CC(c2csc(-n3ccnc3)n2)=Nc2ccc(-c3ccc(F)cc3)cc2N1
224 °C	CN1CCn2c(-c3ccc(F)c(-c4ccc(F)cc4C#N)c3)cnc2C1=O
96.5 to 99.1 °C	CCOC(=O)CCc1cc(-c2ccccc2)n(-c2ccc(S(C)(=O)=O)cc2)n1
205 to 207 °C	Cc1c(C)c2c(c(C)c1NC(=O)CC(C)(C)C)C(O)(c1ccccn1)C(C)(C)O2 (centres undefined)

melting point	SMILES
118 to 120 °C	O=C1CCCN1S(=O)(=O)c1ccc2ccccc2c1
168 to 170 °C	O=C(Cc1ccc(CCNS(=O)(=O)c2ccc(Cl)cc2)cc1)Nc1nnn[nH]1
188 °C	Clc1c[nH]nc1-c1cc(Br)cc(Br)c1
138 to 147 °C	CNC(=O)c1ccc(Nc2nc(Nc3cc4c(cc3OC)CCN(CC(=O)N(C)C)CC4)ncc2Cl)c(OC)c1
81.5 to 83 °C	O=C(O)CCCCCCCC(=O)CC(O)C(=O)C=Cc1ccccc1 (centres undefined)
> 300 °C	O=c1[nH]c2cc(Cl)ccc2c(O)c1Sc1ccccc1
128 to 129 °C	O[C@@H]1CNC[C@H]1Oc1cccc(Cl)c1 (relative stereo)
156 °C	O=C1C=CC(=O)C2=C1OCCO2
188 to 189 °C	COC(OC)C(=O)NC1CCN(C[C@@]23C[C@@H](c4ccccc42)c2ccc(Cl)cc23)CC1
170 to 176 °C	O=C(Nc1ccc(-n2nc(C3CC3)cc2C2CC2)cc1)c1ccc2nc[nH]c2c1
101 to 104 °C	CC(O)C#CC1(O)C(C)C=CCC1(C)C (centres undefined)
80 to 81 °C	CC(=O)c1ccc(OCCNC(=O)OCc2ccccc2)cc1
110 to 114 °C	CC(C)[C@H](NC(=O)N(C)Cc1nc2ccccc2[nH]1)C(=O)N[C@@H](Cc1ccccc1)[C@@H](O)C[C@H](Cc1ccccc1)NC(=O)OCc1cccnc1
204 °C	O=C(c1cccs1)c1cnn2c(-c3cccc(-c4nnnn4CC4CCC4)c3)ccnc12
86 to 87 °C	COP(=O)(CC(=O)[C@@H]1COC(C)(C)N1C(=O)OC(C)(C)C)OC
259 °C	Cn1ncc(C(=O)O)c1C(=O)Nc1ccc2nc(-c3ccccc3)nn2c1
64 to 70 °C	CC(C)(OCCCCCCCCc1csc(-c2ccccc2)n1)C(=O)O
130 to 131 °C	CCOCc1nc2c(N)nc3ccccc3c2n1C[C@H]1COC(C)(C)O1
61 to 86 °C	COc1ccc(OC)c(C(=O)N2CCc3cc(O)ccc3C2)c1
126 °C	CCOC(=O)C1=C(C)NC(N=CCN(C)C)=C(C(=O)OCC)C1c1ccccc1 (centres undefined)
258 to 259 °C	CCCOc1ccccc1-c1nc2nc(N(C)C)nnc2c(=O)[nH]1
135 to 136 °C	O=C(O)COCc1nn(Cc2ccc(F)cc2)c2ccccc12
195 to 198 °C	CC(C)(C)NCC(O)COc1cc(Cl)ccc1-c1ccc(=S)[nH]n1 (centres undefined)
136 to 138 °C	O=C1Nc2ccccc2N(C(=O)N2CCOC(CCN3CCCCC3)C2)c2ncccc21 (centres undefined)
190 to 192 °C	CCCCc1nc2cccc(C)c2c(=O)n1C1CCC(=O)NC1=O (centres undefined)

melting point	SMILES
200 to 202 °C	Clc1ccc(-c2nc3n(c2Br)CCS3)c(Cl)c1
169 to 171 °C	CC(C)CC(=O)C1CCC2C3CN(C(C)(C)C)C4=CC(=O)CCC4(C)C3CCC12CC(=O)O (centres undefined)
180 to 183 °C	COC(=O)C(Cc1ccccc1)NC(=O)C(CC(N)=O)NC(=O)C(CO)NC(=O)OCc1ccccc1 (stereo not drawn) (Cbz-Ser-Asn-Phe-OMe; configuration not given here)
76 to 77 °C	COC(CCOc1cc(C)ccc1C)C(C)(C)C(=O)O (centres undefined)
187 to 190 °C	Nc1nc(-c2ccncc2O)nc2c1c(C(F)(F)F)nn2C1CCCC1
368 °C	CC(C)c1ccccc1-n1c(=O)[nH]c2c(C(N)=O)nc(-c3ccc(-c4nc[nH]n4)cc3)nc21
160 to 170 °C	CCOC(=O)CC[C@H](NC1CCC(CCC2CNc3nc(NC(=O)C(C)(C)C)nc(O)c3C2)CC1)C(=O)OCC (some centres undefined)
198 °C	O=C(O)Cc1cc(C(=O)Cc2ccccc2)ccc1O
228 to 231 °C	Nc1ccc(C#Cc2cnn3c(C4CC4)cc(-c4ccc(C(F)(F)F)cc4)nc23)cn1
97 °C	Nc1ccc(C(=O)OCCCCl)c(N)c1
145 to 146 °C	O=S1(=O)c2ccccc2Oc2ccccc21
77 °C	COCCOC(=O)NC(=O)CCCCCN=C=O
234 to 236 °C	CC(=O)c1ccc(Nc2nnc(Cc3ccncc3)c3ccccc23)cc1O
152 to 155 °C	Cc1nc2c(N)nc3ccccc3c2n1CCOCCNS(C)(=O)=O
194 to 195 °C	O=C(O)Cn1nnc(-c2ccc3c(c2)S(=O)(=O)c2ccccc2C3=O)n1
202 to 203 °C	N#CN=C(Nc1cccnc1)NC(CC12CC3CC(CC(C3)C1)C2)NC(=O)c1ccc(Cl)cc1 (centres undefined)
157 to 158 °C	CCCCc1csc2ccc3[nH]c4c(c3c12)CN(C(C)C)CC4
70 °C	CC(N)C(=O)NC(CCC(=O)NC(CC=CCC(=O)O)C(=O)O)C(=O)O (centres undefined)
> 300 °C	CCOC(=O)c1cccc(-c2cc3c(Nc4cccc(Cl)c4)ncnc3[nH]2)c1
269 °C	CC1(C)CCc2cc(C(=O)c3ccc4cc(C(=O)O)ccc4c3)ccc2O1
138 °C	CC(C)C(=O)N=c1ccn(-c2ccccc2)nc1
250 to 255 °C	C[C@@H](CO)n1cc(C(=O)O)c(=O)c2cc(F)c(N3CCN(C)CC3)c(F)c21
64 °C	COc1nsc(S(=O)(=O)c2ccccc2)c1C#N
55 to 56 °C	COCOc1c(-c2ccccc2)sc2cnccc12
183 to 185 °C	COC(=O)C(c1cc2c(cc1Cl)OCO2)c1cn(C)c2cc(Br)ccc12 (centres undefined)

melting point	SMILES
75 to 77 °C	COc1ccc(-c2cccc(-c3nc(C(C)C)[nH]c3-c3cccc(C)n3)c2)cc1
262 °C	CN1CCN(C(=O)C(c2ccc(Cl)cc2)c2c(Cl)cc(-n3ncc(=O)[nH]c3=O)cc2Cl)CC1 (centres undefined)
199 to 202 °C	O=C(Cc1ccc(NC(=O)c2cn3c4c(cccc24)CCC3)cc1)NO
199 to 200 °C	COc1ccc(-c2ccc(NC(=O)C=Cc3ccc(CN4CCCC4)cc3)cc2)cc1
67 to 69 °C	COc1ccc2c(c1)NC(C)(C)C=C2C
89 to 91 °C	CCCc1c(COc2ccc(-c3nnn(CCCN(C)C)n3)cc2)ccc(C(C)=O)c1O
202 to 205 °C	C[C@]1(CN2CCN(c3cc(-c4ccccc4)nc(-c4ccccc4)n3)CC2)Cn2cc([N+](=O)[O-])nc2O1
128 to 129 °C	CCC(=O)NCC(CO)c1cccc2ccc(OC)cc12 (centres undefined)
171 to 174 °C	Nc1ccc(Oc2cccc(Oc3ccc(N)c(O)c3)c2)cc1O
155 °C	Oc1cc(-c2ccco2)c2oc(-c3ccc(O)c(F)c3)nc2c1
120 to 124 °C	COc1ccc(N2CCN(c3c(C)c(C)c4c(c3C)CC(C)(COC=O)O4)CC2)cc1 (centres undefined)
105 to 106 °C	O=C1C(Br)CCN1c1ncc(C(F)(F)F)s1 (centres undefined)
298 to 299 °C	O=C(O)c1ccc2c(c1)Cc1ccccc1O2
77 to 80 °C	O=C(c1ccc(Br)cc1Cl)N1Cc2cccn2Cc2ccccc21
141 to 142 °C	O=C(O)CCCC1Cc2ccc(Cl)cc2C1=O (centres undefined)
143 to 146 °C	COc1c(C(=O)O)nc(-c2ccc(Cl)c(OC)c2F)c(F)c1N
69 to 71 °C	CCOC(=O)C1CSC(COc2ccc(OC)cc2)N1C(=O)CCl (centres undefined)
121 to 122 °C	O=C(NNCCO)c1ccc(NCc2cc(Br)ccc2OCc2ccccc2)cc1
219 to 221 °C	O=C(c1ccc2c(c1)[C@@H](O)[C@H](Br)CCO2)c1ccccc1F (relative stereo)
108 to 110 °C	CCCn1c(=O)c2c(NC(C)=O)n[nH]c2n(Cc2ccccc2)c1=O
184 °C	ON=C(c1ccc(F)cc1)c1cccc2nc(N[C@@H]3CCc4ccccc43)ccc12
144 to 146 °C	Cc1ccccc1N1CCc2c(C)nc3c(O)cccc3c21

SMILES	melting point
CC(C)=CCn1nc(C(=O)c2cccc(O)c2)c2ccccc21	92 to 94 °C
CNC1=Nc2ccc(Br)cc2C(c2ccccc2)=NC1	234 to 235 °C
